Measurements published in patent US20060229255A1, “Identification of n-alkylglycine trimers for induction of apoptosis” (priority 2003, published 2006).

Columns and labels:
Cdk4/CycD1 = target: T1, Cdk4/CycD1 (Homo sapiens, UniProt P11802); assay: 33PanQinase Cdk4/CycD1 kinase assay (pRb phosphorylation); type: biochemical; details: 3 μM or 30 μM
T1 construct: GST; host or cells: Sf9 insect cells, baculovirus
Method: ^33Pan Qinase assays containing cycD, Cdk4 and pRb protein in the presence of 3 μM or 30 μM, N10-13-10C or N13-13-10C, were performed.
To assay Cdk4/CycD1 kinase activity, Cdk4 was expressed in Sf9 insect cells as recombinant GST-fusion protein by means of baculovirus expression system. Kinase assay was performed in 96-well FlashPlates (NEN) in a 50 μl reaction volume using the ^33PanQinase activity assay (ProQinase) and Beckman Coulter/Sagian robotic system. The reaction cocktail was 20 μl of assay buffer (50 mM Hepes-NaOH pH 7.5, 3 mM MgCl2, 3 mM MnCl2, 3 μM Na-orthovanadate, 1 mM DTT, 0.1 μM […]); 1 μg pRb protein; 100 ng enzyme; and 5 μl of test compound in 10% DMSO. The reaction cocktail was incubated at 30° C. for 80 min. The reaction was stopped with 50 μl of 0.2% (v/v) H3PO4, plates were aspirated and washed two times with 0.9% (w/v) NaCl. Incorporation of ^33P was determined with a microplate scintillation counter (Microbeta, Wallac).

HT29 cells = assay: DNA analysis by flow cytometry (cell cycle profile, sub-G1 peak); type: cell-based, human; details: for Dose dependence of subG1 peak: HT29, 72 h, increasing dose 1-35 or 40 μM; for Apoptosis induction (sub-G1 peak detection): HT29, 72 h treatment; for Cells in G1-phase: HT29, compound alone, 24 h in culture; for Maximum apoptosis in time-course: HT29, highest dose assayed, 72 h; for Cell population retained in G2/M phase: HT29, in combination with low doses of Taxol
Method: DNA analysis. Floating and adherent cells treated with the compounds were collected by trypsinization and washed twice with PBS. The cells were permeabilized overnight at −20° C. with ice-cold ethanol 70%. The cells were washed in PBS, adjusted at 0.5×10^6 cells/ml and incubated with 20 μg/ml Propidium Iodide and 2 μl/ml RNase DNase-free for 30 min at 30° C. Cells were maintained overnight at 4° C. and then analysed by flow cytometry. Flow cytometric experiments were carried out using an Epics XL flow cytometer (Coulter Corporation, Hialeah, Fla.). The instrumet was set up with the standard configuration: excitation of the sample was done using an standard 488 nm air-cooled argon-ion laser at 15 mW power. Forward scatter (FSC), side scatter (SSC) and red (620 nm) fluorescence for PI were adquired. Optical alignement was based on optimized signal from […] fluorescent beads (Immunocheck, Epics Division). Time was used as a control of the stability of the instrument. Red fluorescence was projected on a 1024 monoparametrical histogram. Aggregates were excluded gating single cells by their area vs. peak fluorescence signal. DNA analysis (Ploidy analysis) on single fluorescence histograms was done using Multicycle software (Phoenix Flow Systems, San Diego, Calif.).
FIG. 2. N10-13-10C and N13-13-10C are pro-apoptotic peptoids while N4-13-10C and N5-13-10C are not. Cell cycle profile was analysed by DNA staining. HT29 cells were grown for 72 h in presence of N4-13-10C (100 μM), N5-13-10C (100 μM), N10-13-10C (40 μM), N13-13-10C (35 μM), Taxol (11 nM) or DMSO as negative control. Fraction of cells at G0/G1, S, G2/M or subG1 peak are specified.
FIG. 3. Specific pro apoptotic effect of N10-13-10C and N13-13-10C. (A) SubG1 peak analysis on several cell lines including HT29, LoVo, MDA.MB.435 and its lung metastatic derivatives lung 2 and lung 6 after 72 h treatment with N10-13-10C or N13-13-10C at IC50 values specified on Table 1. (B) Dose-response analysis of subG1 peak after 72 h treatment of HT29 cells with N 10-13-10C or N13-13-10C at 1, 5, 10, 20, 30 and 35 or 40 μM, respectively. Both, floating and adherent cells were collected, fixed, stained with propidium iodide and DNA content was evaluated by flow cytometry. The fraction of cells with hypodiplod DNA content, i.e. subG1 peak are shown.
FIG. 4. (A) Time course analysis of cell cycle profile after treatment of HT29 cells with N10-13-10C (40 μM), N13-13-10C (35 μM) and/or Taxol (11 nM) for 24 h, 48 h and 72 h. The fraction of cells with subG1 (dark blue), G0/G1 (red), S (yellow), G2/M (blue) DNA content are shown as % of total cell population. (B.) N13-13-10C pulse experiments. HT29 cells were treated transiently with 35 μM N13-13-10C for 1, 3, 6, 24, 48 or 72 h and returned to medium without product for up to 72 h. DNA staining was analyzed by flow cytometry.

cycA-Cdk2 = cycA-Cdk2 (Homo sapiens, UniProt P24941); assay: In vitro kinase assay for Cdk2; type: biochemical; details: 3 μM or 30 μM
Method: We had observed that cycA protein levels and pRb hypophosphorylation decrease in cell extracts of N10-13-10C or N13-13-10C treated cells (FIG. 8). To assess whether these compounds were direct inhibitors of Cdk2 activity, in vitro kinase assays for Cdk2 were performed.
Kinase assays for testing of Cdk2/CycA-E kinase activity. ELISA plates were blocked with 200 μl of blocking solution (PBS containing 1% BSA, 0.02% Tween and 0.02% sodium Azide) overnight at 4° C. Plates were then subsequently washed 3 times, 5 min each with 100 μl of washing solution (PBS containing 0.02% Tween and 0.02% sodium Azide). Plates were then dried during 2-4 h at room temperature. Kinase assay was performed in kinase buffer (Hepes 25 mM pH 7.4 and MgCl2 10 mM) containing 4 μg of histone H1, 30 μM ATP, 2 mM DTT, 0.1 μl of ATP-P^32, 800 nM GST-CDK2, and 800 nM of GST-cyclin A in a final volume of 60 μl. Assays were carried out in the presence or absence of different concentrations of peptide mixtures to be checked. A inhibitory control was performed adding 800 nM of p21 to the reaction media. Mixtures were incubated for 30 min at 37° C. After incubation, 50 μl of each mixture was filtered in nitrocellulose membranes placed in a dot blot apparatus. […] The radioactivity associated to the membranes was detected with a “Phosphor-imager”.

T1 sequence (P11802 whole entry): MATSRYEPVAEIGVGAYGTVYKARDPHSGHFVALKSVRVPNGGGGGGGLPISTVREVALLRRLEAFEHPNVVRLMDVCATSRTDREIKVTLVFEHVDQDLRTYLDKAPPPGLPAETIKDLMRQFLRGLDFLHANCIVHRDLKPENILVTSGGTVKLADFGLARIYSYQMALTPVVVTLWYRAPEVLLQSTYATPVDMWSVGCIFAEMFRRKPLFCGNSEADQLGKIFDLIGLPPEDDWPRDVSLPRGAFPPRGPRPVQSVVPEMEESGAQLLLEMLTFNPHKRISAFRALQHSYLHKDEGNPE
T1 sequence (P24385 whole entry partner): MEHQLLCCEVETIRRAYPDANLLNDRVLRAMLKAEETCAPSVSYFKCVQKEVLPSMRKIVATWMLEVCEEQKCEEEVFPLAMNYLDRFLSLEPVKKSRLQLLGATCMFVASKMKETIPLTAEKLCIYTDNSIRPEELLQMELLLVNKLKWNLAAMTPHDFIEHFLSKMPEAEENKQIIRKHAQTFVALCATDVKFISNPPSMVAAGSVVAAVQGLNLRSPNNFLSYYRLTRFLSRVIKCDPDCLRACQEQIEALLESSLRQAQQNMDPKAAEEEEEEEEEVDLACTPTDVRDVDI

Compound | Inhibition of pRb phosphorylation by cycD/Cdk4 (Cdk4/CycD1) | Dose dependence of subG1 peak (HT29 cells) | Apoptosis induction (sub-G1 peak detection) (HT29 cells) | Cells in G1-phase (HT29 cells) | Maximum apoptosis in time-course (HT29 cells) | Cell population retained in G2/M phase (HT29 cells) | Inhibition of cycA-Cdk2 kinase activity (cycA-Cdk2) | Pulse necessary for irreversible induction of apoptosis (HT29 cells; HT29, 35 μM, returned to drug-free medium up to 72 h) [h] | Cell cycle profile after short time pulses (HT29 cells; HT29, pulses of 1, 3 and 6 h)
COc1ccc(CCN(CC(=O)N(CCc2ccccc2)CC(N)=O)C(=O)CNCCc2ccccc2)cc1 [N10-13-10C] | No inhibition | dose-dependent apoptosis | able to induce apoptosis | increase the percentage of cells in G1-phase | 20% | about 60% | Neither of both compounds was able to inhibit |  | 
COc1ccc(CCNCC(=O)N(CCc2ccc(OC)cc2)CC(=O)N(CCc2ccccc2)CC(N)=O)cc1 [N13-13-10C] | No inhibition | dose-dependent apoptosis | able to induce apoptosis | increase the percentage of cells in G1-phase | around 40% | about 60% | Neither of both compounds was able to inhibit | ≥ 24 | do not differ from control cells
